Reference: publication PMC11438954 (Nature Communications, 2024)

What was measured:
NavMs = target: T1, NavMs (Magnetococcus marinus, UniProt A0L5S6, F208L); experiment: X-ray crystal structure with sulphur anomalous signal; […]-19F STD NMR; IC50 from whole-cell patch clamp (SSI shift) in HEK293T cells; format: cell-based
T1 construct: gene Mmc1_0798; full-length homotetrameric channel, thrombin-treated

[1] = target: NavMs (NavMs F208L, referred to as WT in the paper), prokaryotic voltage-gated sodium channel from Magnetococcus marinus (Magnetococcus marinus) (UniProt A0L5S6); experiment: crystal structure; NavMs (10 mg/ml, 300 uM) with 0.5 mM riluzole in 1% DMSO, or 1% DMSO alone; sitting drops at 4 °C, 30-35% PEG 300, 100 mM HEPES pH 7, 0-100 mM NaCl, HEGA-10 detergent; space group I422, one monomer per asymmetric unit, tetramer by crystal symmetry

T1 sequence (A0L5S6 entry or part of it F208L): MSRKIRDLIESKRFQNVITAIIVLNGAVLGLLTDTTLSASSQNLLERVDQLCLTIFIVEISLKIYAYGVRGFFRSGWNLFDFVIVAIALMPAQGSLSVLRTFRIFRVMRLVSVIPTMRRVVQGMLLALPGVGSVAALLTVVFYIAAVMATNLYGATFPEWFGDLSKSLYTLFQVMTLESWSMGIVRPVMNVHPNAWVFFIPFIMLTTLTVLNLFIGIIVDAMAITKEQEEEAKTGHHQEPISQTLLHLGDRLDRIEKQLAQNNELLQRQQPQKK

## Nc1nc2ccc(OC(F)(F)F)cc2s1 [riluzole, 2-amino-6-(trifluoromethoxy)benzothiazole]
NavMs
  IC50: 2000 nM

## NavMs (NavMs F208L, referred to as WT in the paper), prokaryotic voltage-gated sodium channel from Magnetococcus marinus (from UniProt A0L5S6 1-274) (natural protein)
[1]
  stoichiometry N: 4
